# From patent publication US20250101436A1, “APTAMERS AND SMALL MOLECULE LIGANDS” (MeiraGTx UK II Limited, priority 2021, published 2025)
# Tested on: N5-12G6 riboswitch
# Assay: Firefly luciferase assay, N5-12G6 riboswitch in HEK293 cells
# Conditions: 12G6 riboswitch, HEK293
# Description: Transfection: 3.5×10^4 human embryonic kidney (HEK) 293 cells were plated in a 96-well flat bottom plate the day before transfection. Plasmid DNA (500 ng) was added to a tube or a 96-well U-bottom plate. Separately, TransIT-293 reagent (Mirus; 1.4 L) was added to 50 μL Optimum I media (Life Technologies) and allowed to sit for 5 minutes at room temperature (RT). Then, 50 μL of this diluted transfection reagent was added to the DNA, mixed, and incubated at RT for 20 min. Finally, 7 μL of this solution was added to a well of cells in the 96-well plate. Four hours after transfection, medium containing transfection solution was replaced by medium with either TPP or fursultiamine as aptamer ligands.
# Firefly luciferase assay of cultured cells: Twenty-four hours after media change, plates were removed from the incubator, and equilibrated to RT for several minutes on a lab bench, then aspirated. Glo-lysis buffer (Promega, 100 μL, RT) was added, and the plates allowed to remain at RT for at least 5 minutes. Then, the well contents were mixed by 50 μL trituration, and 20 μL of each sample was mixed with 20 μL of bright-glo reagent (Promega) that had been diluted to 10% in glo-lysis buffer. 96 wells were spaced on an opaque white 384-well plate. Following a 5 min incubation at RT, luminescence was measured using a Tecan machine with 500 ms read time. The luciferase activity was expressed as mean arbitrary light units (ALU)±S.D., and fold induction was calculated as the quotient of the luciferase activity obtained from cells with TPP or analog compound treatment divided by the luciferase activity obtained from cells without TPP or analog compound treatment.
row,Compound,regulation of luciferase expression (FIG. 4e)
1,"Clc1cc2nccnc2cc1CNc1cnccc1N1CCNCC1 [compound 013, N-((7-Chloroquinoxalin-6-yl)methyl)-4-(piperazin-1-yl)pyridin-3-amine]",regulate expression in a dose-dependent fashion
2,"c1cc(N2CCCNCC2)c(NCc2ccc3nccnc3c2)cn1 [compound 014, 4-(1,4-Diazepan-1-yl)-N-(quinoxalin-6-ylmethyl)pyridin-3-amine]",regulate expression in a dose-dependent fashion
3,"CC1CN(c2ccncc2NCc2ccc3nccnc3c2)CCN1 (stereo not shown) [compound 016, 4-(3-Methylpiperazin-1-yl)-N-(quinoxalin-6-ylmethyl)pyridin-3-amine]",regulate expression in a dose-dependent fashion

# Same assay, conditions: Homo sapiens, HEK293, read-out: Fold induction 2 μM (HEK), 12G6 riboswitch, luciferase, HEK293, 2 μM
row,Compound,fold induction at 2 µM
1,"Fc1c(CNc2cnccc2N2CCNCC2)ccc2nccnc12 [compound 067, N-((5-fluoroquinoxalin-6-yl)methyl)-4-(piperazin-1-yl)pyridin-3-amine]",3.4
2,"Clc1cc2nccnc2cc1CNc1cnccc1N1C[C@H]2C[C@@H]1CN2 [compound 098, 4-((1R,4R)-2,5-diazabicyclo[2.2.1]heptan-2-yl)-N-((7-chloroquinoxalin-6-yl)methyl)pyridin-3-amine]",4.5
3,"c1cc(OC2CCNCC2)c(NCc2ccc3nccnc3c2)cn1 [compound 045, 4-(piperidin-4-yloxy)-N-(quinoxalin-6-ylmethyl)pyridin-3-amine]",12
4,"Cc1cncc(NCc2cc3nccnc3cc2F)c1N1CCNCC1 [compound 086, N-((7-fluoroquinoxalin-6-yl)methyl)-5-methyl-4-(piperazin-1-yl)pyridin-3-amine]",17.3
5,"COc1cncc(NCc2ccc3nccnc3c2)c1N1CCNCC1 [compound 075, 5-methoxy-4-(piperazin-1-yl)-N-(quinoxalin-6-ylmethyl)pyridin-3-amine]",18.6
6,"Fc1cc2nccnc2cc1CNc1cncc(F)c1N1CCNCC1 [compound 082, 5-fluoro-N-((7-fluoroquinoxalin-6-yl)methyl)-4-(piperazin-1-yl)pyridin-3-amine]",24.7
7,"Clc1cncc(NCc2ccc3nccnc3c2)c1N1CCCNCC1 [compound 093, 5-chloro-4-(1,4-diazepan-1-yl)-N-(quinoxalin-6-ylmethyl)pyridin-3-amine]",30.7
8,"C[C@@H]1CN(c2ccncc2NCc2cc3nccnc3cc2Cl)CCN1 [compound 058, (R)—N-((7-chloroquinoxalin-6-yl)methyl)-4-(3-methylpiperazin-1-yl)pyridin-3-amine]",6.1
9,"Fc1cc2nccnc2cc1CNc1cnccc1N1CCNCC1 [compound 050, N-((7-fluoroquinoxalin-6-yl)methyl)-4-(piperazin-1-yl)pyridin-3-amine]",23.5
10,"COc1cc(N2CCNCC2)c(NCc2ccc3nccnc3c2)cn1 [compound 116, 6-methoxy-4-(piperazin-1-yl)-N-(quinoxalin-6-ylmethyl)pyridin-3-amine]",50
11,"Cc1cncc(NCc2ccc3nccnc3c2)c1N1CCCNCC1 [compound 094, 4-(1,4-diazepan-1-yl)-5-methyl-N-(quinoxalin-6-ylmethyl)pyridin-3-amine]",35.1
12,"Cc1cc(CNc2cnccc2N2CCNCC2)cc2nccnc12 [compound 068, N-((8-methylquinoxalin-6-yl)methyl)-4-(piperazin-1-yl)pyridin-3-amine]",4.4
13,"CN(C)CCOc1ccncc1NCc1ccc2nccnc2c1 [compound 047, 4-(2-(dimethylamino)ethoxy)-N-(quinoxalin-6-ylmethyl)pyridin-3-amine]",2.7
14,"Cc1cc2nccnc2cc1CNc1cnccc1O[C@@H]1CCNC1 [compound 123, (R)—N-((7-methylquinoxalin-6-yl)methyl)-4-(pyrrolidin-3-yloxy)pyridin-3-amine]",83.9
15,"C[C@@H]1CNCCN1c1ccncc1NCc1cc2nccnc2cc1F [compound 100, (R)—N-((7-fluoroquinoxalin-6-yl)methyl)-4-(2-methylpiperazin-1-yl)pyridin-3-amine]",3.5
16,"FC(F)c1cncc(NCc2ccc3nccnc3c2)c1N1CCNCC1 [compound 076, 5-(difluoromethyl)-4-(piperazin-1-yl)-N-(quinoxalin-6-ylmethyl)pyridin-3-amine]",117
17,"Clc1cc2nccnc2cc1CNc1cncc(Cl)c1N1CCNCC1 [compound 054, 5-chloro-N-((7-chloroquinoxalin-6-yl)methyl)-4-(piperazin-1-yl)pyridin-3-amine]",10.6

row,Compound,fold induction at 2 µM
1,"Brc1cncc(NCc2ccc3nccnc3c2)c1OC1CNC1 [compound 112, 4-(azetidin-3-yloxy)-5-bromo-N-(quinoxalin-6-ylmethyl)pyridin-3-amine]",40.9
2,"Clc1cc(CNc2cnccc2N2CCNCC2)cc2nccnc12 [compound 049, N-((8-chloroquinoxalin-6-yl)methyl)-4-(piperazin-1-yl)pyridin-3-amine]",5.7
3,"Cc1cc(N2CCNCC2)c(NCc2ccc3nccnc3c2)cn1 [compound 118, 6-methyl-4-(piperazin-1-yl)-N-(quinoxalin-6-ylmethyl)pyridin-3-amine]",26.2
4,"c1ccc2c(N3CCNCC3)c(NCc3ccc4nccnc4c3)cnc2c1 [compound 115, 4-(piperazin-1-yl)-N-(quinoxalin-6-ylmethyl)quinolin-3-amine]",79
5,"Clc1cc(CNc2cnccc2OC2CNC2)cc2nccnc12 [compound 064, 4-(azetidin-3-yloxy)-N-((8-chloroquinoxalin-6-yl)methyl)pyridin-3-amine]",15
6,"FC(F)(F)c1cc(CNc2cnccc2O[C@@H]2CCNC2)cc2nccnc12 [compound 124, (R)-4-(pyrrolidin-3-yloxy)-N-((8-(trifluoromethyl)quinoxalin-6-yl)methyl)pyridin-3-amine]",3
7,"C[C@H]1CN(c2c(F)cncc2NCc2ccc3nccnc3c2)CCN1 [compound 103, (S)-5-fluoro-4-(3-methylpiperazin-1-yl)-N-(quinoxalin-6-ylmethyl)pyridin-3-amine]",23.3
8,"Brc1cncc(NCc2ccc3nccnc3c2)c1N1CCNCC1 [compound 074, 5-bromo-4-(piperazin-1-yl)-N-(quinoxalin-6-ylmethyl)pyridin-3-amine]",48.6
9,"c1cc(N2CC3(CNC3)C2)c(NCc2ccc3nccnc3c2)cn1 [compound 046, N-(quinoxalin-6-ylmethyl)-4-(2,6-diazaspiro[3.3]heptan-2-yl)pyridin-3-amine]",1.6
10,"Fc1cc2nccnc2cc1CNc1cncc(Cl)c1O[C@@H]1CCNC1 [compound 120, (R)-5-chloro-N-((7-fluoroquinoxalin-6-yl)methyl)-4-(pyrrolidin-3-yloxy)pyridin-3-amine]",24.7
11,"Clc1cc2nccnc2cc1CNc1cnccc1N1CC2CNCC2C1 (stereo not shown) [compound 099, N-((7-chloroquinoxalin-6-yl)methyl)-4-(hexahydropyrrolo[3,4-c]pyrrol-2(1H)-yl)pyridin-3-amine]",8.2
12,"C[C@H]1CN(c2c(Cl)cncc2NCc2ccc3nccnc3c2)CCN1 [compound 025, (S)-5-Chloro-4-(3-methylpiperazin-1-yl)-N-(quinoxalin-6-ylmethyl)pyridin-3-amine]",42.6
13,"Fc1nccc(N2CCNCC2)c1NCc1ccc2nccnc2c1 [compound 051, 2-fluoro-4-(piperazin-1-yl)-N-(quinoxalin-6-ylmethyl)pyridin-3-amine]",2.7
14,"C[C@@H]1CN(c2c(Cl)cncc2NCc2ccc3nccnc3c2)CCN1 [compound 056, (R)-5-chloro-4-(3-methylpiperazin-1-yl)-N-(quinoxalin-6-ylmethyl)pyridin-3-amine]",12.9
15,"C[C@H]1CN(c2ccncc2NCc2cc(F)c3nccnc3c2)CCN1 [compound 059, (S)—N-((8-fluoroquinoxalin-6-yl)methyl)-4-(3-methylpiperazin-1-yl)pyridin-3-amine]",15.8
16,"C[C@@H]1CN(c2ccncc2NCc2cc(F)c3nccnc3c2)CCN1 [compound 060, (R)—N-((8-fluoroquinoxalin-6-yl)methyl)-4-(3-methylpiperazin-1-yl)pyridin-3-amine]",1.7

# Same assay, conditions: Homo sapiens, HEK293, read-out: Fold induction 3.3 μM (HEK), 12G6 riboswitch, luciferase, HEK293, 3.3 μM
row,Compound,fold induction at 3.3 µM
1,"C[C@H]1CNCCN1c1ccncc1NCc1ccc2nccnc2c1 [compound 041, (S)-4-(2-methylpiperazin-1-yl)-N-(quinoxalin-6-ylmethyl)pyridin-3-amine]",5
2,"C[C@H]1CN(c2ccncc2NCc2ccc3nccnc3c2)CCN1 [compound 042, (S)-4-(3-methylpiperazin-1-yl)-N-(quinoxalin-6-ylmethyl)pyridin-3-amine]",29
3,"c1cc(O[C@H]2CCNC2)c(NCc2ccc3nccnc3c2)cn1 [compound 044, (S)-4-(pyrrolidin-3-yloxy)-N-(quinoxalin-6-ylmethyl)pyridin-3-amine]",22
4,"C[C@@H]1CN(c2ccncc2NCc2ccc3nccnc3c2)CCN1 [compound 043, (R)-4-(3-methylpiperazin-1-yl)-N-(quinoxalin-6-ylmethyl)pyridin-3-amine]",31

# Same assay, conditions: Homo sapiens, HEK293, read-out: Fold induction 25 μM (HEK), 12G6 riboswitch, luciferase, HEK293, 25 μM
row,Compound,fold induction at 25 µM
1,"c1cc(N2CCOCC2)c(NCc2ccc3nccnc3c2)cn1 [compound 039, 4-morpholino-N-(quinoxalin-6-ylmethyl)pyridin-3-amine]",6
2,"Clc1cc2nccnc2cc1CNc1cnccc1N1CCNCC1 [compound 013, N-((7-Chloroquinoxalin-6-yl)methyl)-4-(piperazin-1-yl)pyridin-3-amine]",314
3,"c1cc(N2CC3CNCC3C2)c(NCc2ccc3nccnc3c2)cn1 (stereo not shown) [compound 032, 4-(hexahydropyrrolo[3,4-c]pyrrol-2(1H)-yl)-N-(quinoxalin-6-ylmethyl)pyridin-3-amine]",69.4
4,"c1cc(NCc2ccc3nccnc3c2)c(N2CCNCC2)cn1 [compound 040, 3-(piperazin-1-yl)-N-(quinoxalin-6-ylmethyl)pyridin-4-amine]",69
5,"c1cc(N2CCCNCC2)c(NCc2ccc3nccnc3c2)cn1 [compound 014, 4-(1,4-Diazepan-1-yl)-N-(quinoxalin-6-ylmethyl)pyridin-3-amine]",251
6,"CC1CN(c2ccncc2NCc2ccc3nccnc3c2)CCN1 (stereo not shown) [compound 016, 4-(3-Methylpiperazin-1-yl)-N-(quinoxalin-6-ylmethyl)pyridin-3-amine]",287
